In PubChem BioAssay (NCI) one finds TGI data, which are given here for one compound.

The experiment relates to P388/ADR leukemia. In words: NCI tumour cell line growth inhibition, 48 h.

The structures appear in SMILES notation.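 Assay format: 96-well plates, 48-hour exposure. TGI denotes the concentration required for complete inhibition of growth.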 Some results are limits rather than exact numbers.

`O=C(O)CCC(NC(=O)c1ccc(Nc2nc3cc(C(F)(F)F)ccc3nc2-c2ccccc2)cc1)C(=O)O` (stereo unspecified) yielded a TGI of over 100 µM.
